One test relates to Aiolos. The test can be described thus: IMiD activity: Aiolos degradation in PBMCs by flow cytometry. Type of test: cell-based. Particulars: human PBMCs, 24 hours. On the procedure: In addition, Compounds 1-24 were assayed for IMiD activity. Frozen human peripheral blood mononuclear cells (PBMCs) were thawed and treated with DMSO or compound for 24 hours and then fixed and permeabilized using a Foxp3/Transcription Factor Fixation/Permeabilization Kit (eBioscience, 00-5523). Cells were stained with fluorophore-conjugated antibodies against CD20 (Biolegend 302330), CD3 (BD Pharmingen 552127), and Aiolos (Biolegend 371106). An additional set of DMSO-treated PBMCs was stained for CD20, CD3, and an AlexaFluor 647-conjugated mouse IgG1 isotype control antibody (Biolegend 400136). Stained cells were run on an Attune NxT Acoustic Focusing Flow Cytometer (Thermo-Fisher A29004), and data was analyzed using FlowJo (v10.5.3) and GraphPad Prism (v7.00) software. Single lymphocytes were gated for B cells (CD20+CD3-) and T cells (CD3+CD20-), and the geometric mean fluorescence intensity (MFI) of Aiolos was calculated for each population. The MFI of the isotype control was calculated for each population and used to quantify background staining. Percent Aiolos degradation was calculated for each compound-treated sample using the following equation: […]
DC50 is the compound concentration degrading 50% of Aiolos. Dmax is the maximum percent Aiolos degradation in the assay.

Test [1] concerns Experimental autoimmune encephalomyelitis (EAE). Put plainly: Experimental autoimmune encephalomyelitis (EAE) model. In kind it is in vivo, C57BL/6 mice. On the procedure: EAE was induced in C57BL/6 mice by immunization with an emulsion of MOG1-125 in complete Freund's adjuvant (CFA), followed by administration of pertussis toxin in PBS, first on the day of immunization (Day 0) and then again the following day (Day 1).
Dosing of all mice started on Day −1 and continued through Day 22. Fingolimod (FTY720, Gilenya) is the a commonly used positive control in this model.
Statistical significance was determined between vehicle control and treated groups based on the end clinical scores using Wilcoxon's non-parametric test.
Statistical analysis: Demyelination (anti-MBP) with Wilcoxon's non-parametric test; inflammatory foci or apoptosis with two-tailed Student's t-test.

In a further test the test system is MRL/lpr model. The test can be described thus: MRL/lpr lupus model. In kind it is in vivo, MRL/lpr mice. The protocol:
Dexamethasone was used as positive control.
Statistical significance was determined between vehicle control and treated groups by ANOVA with Dunnett's post-hoc analysis.
Glomeruli size is a quantitative measure that correlates well with the histopathological grade and severity of nephritis in this model. Statistical significance was determined between vehicle control and treated groups by ANOVA with Dunnett's post-hoc analysis (glomerulus diameter) or with a Kruskal-Wallis test with Dunn's post-hoc analysis (summed scores). * p<0.05, ** p<0.01, *** p<0.001**** p<0.0001.

The next test deals with B cells compartment. The test can be described thus: Dosing effect on B cells compartment (B cells, plasma cells). In kind it is in vivo, C57BL/6 mice. Particulars: 30 mg/kg in water bottle. On the procedure:
(§1) A separate group of mice received vehicle formulation as control. Blood spleens and femurs for each treated mice were harvested at the end of the study. Peritoneal lavage was also performed with PBS to harvest peritoneal resident lymphocyte.
It is plausible that Compound 1 affects one or multiple proteins that are involved either in generation or the survival of plasma cells and that this effect is independent from its ability to degrade the BTK protein. Left, representative dot plots showing the gating strategy to identify plasma cells in bone marrow. Right histograms showing cumulative data from multiple treated animals.
An ordinary one-way ANOVA with Tukey's multiple comparisons test was performed, and all groups were compared to each other. * p<0.05, ** p<0.01,**** p<0.001. All comparisons without an asterisk were not significant.

The test system of test [2] is well-established arthritis. Put plainly: Mouse model of well-established arthritis, clinical arthritis score. Type of test: in vivo, male DBA/1 mice.
The subject of the next test is plasma cells. Put plainly: Plasma cell counts in spleen and bone marrow, established arthritis model. In kind it is in vivo, male DBA/1 mice. An excerpt:
(B) Spleens harvested at the end of the study were dissociated, and red blood cells were lysed with ammonium-chloride-potassium (ACK) lysis buffer. 1.5 million cells per spleen were stained for flow cytometry, and live single lymphocytes were gated for plasma cells (CD138+ IgD−). Plasma cells numbers were normalized to total B cells in spleen (CD19+B220+).
(C) Bone marrow was isolated from femurs harvested at the end of the study, and samples were processed and analyzed as in (B).
In (B) and (C), ordinary one-way ANOVAs with Dunnett's multiple comparisons tests were performed.

Test [3] addresses T1, BTK (Mus musculus, UniProt P35991). The test can be described thus: BTK level in spleen B cells after NP-KLH immunization. Type of test: in vivo, Mice. Set-up: from tissue; host or cells: mouse spleen B cells (CD19+ TCRbeta-). On the procedure: Mice were immunized by intraperitoneal injection of 200 μL of immunogen containing 100 μg NP-32-KLH (Biosearch Technologies, Cat. N-5060-25,Lot. 156285-01) and 1% Alum (Alhydrogel, 2%, Invivogen Cat. Vac-alu-250, Batch 0001715532, Exp. July 2022), prepared in phosphate buffered saline. Group 1 mice were not immunized and used as control. Mice in Group 2 to 5 were dosed orally once a day from Day 1 to Day 7 with compounds or vehicle for six additional days and then sacrificed the following day. Splenocytes and bone marrow were harvested 24 hours following the final dosing of compound on Day 7. Spleens harvested at the end of the study were dissociated, and red blood cells were lysed with ammonium-chloride-potassium (ACK) lysis buffer. 1 million cells per tissue were stained for each flow cytometry panel.
Cells were permeabilized and stained for lineage markers and intracellular BTK. B cells were gated on CD19+ TCRbeta−, and T cells were gated on CD19− and TCRbeta+.

Test [4] addresses T1, BTK. Put plainly: BTK level in B cells of dosed mice. Type of test: in vivo, C57BL/6 mice. The arrangement: Single cell suspensions from each tissue were permeabilized and stained for lineage markers and intracellular BTK; from tissue. Particulars: 30 mg/kg in water bottle; blood, spleens, peritoneum and bone marrow. On the procedure: as §1
To evaluate level of BTK in B cells, Single cell suspensions from each tissue were permeabilized and stained for lineage markers and intracellular BTK. B cells were gated on B220+ TCRbeta−, and T cells were gated on B220− and TCRbeta+.

Where [5] appears, read: H&E-stained kidney tissue, end of study.

Each structure is given as a SMILES string. Entries after “also recorded” stand apart in the source; their conditions may differ.

We go through one compound from patent US20240336595A1, “BIFUNCTIONAL COMPOUNDS FOR DEGRADING BTK WITH DIMINISHED IMID ACTIVITY” (NURIX THERAPEUTICS, INC., priority 2021, published 2024).

T1 sequence (P35991 whole entry): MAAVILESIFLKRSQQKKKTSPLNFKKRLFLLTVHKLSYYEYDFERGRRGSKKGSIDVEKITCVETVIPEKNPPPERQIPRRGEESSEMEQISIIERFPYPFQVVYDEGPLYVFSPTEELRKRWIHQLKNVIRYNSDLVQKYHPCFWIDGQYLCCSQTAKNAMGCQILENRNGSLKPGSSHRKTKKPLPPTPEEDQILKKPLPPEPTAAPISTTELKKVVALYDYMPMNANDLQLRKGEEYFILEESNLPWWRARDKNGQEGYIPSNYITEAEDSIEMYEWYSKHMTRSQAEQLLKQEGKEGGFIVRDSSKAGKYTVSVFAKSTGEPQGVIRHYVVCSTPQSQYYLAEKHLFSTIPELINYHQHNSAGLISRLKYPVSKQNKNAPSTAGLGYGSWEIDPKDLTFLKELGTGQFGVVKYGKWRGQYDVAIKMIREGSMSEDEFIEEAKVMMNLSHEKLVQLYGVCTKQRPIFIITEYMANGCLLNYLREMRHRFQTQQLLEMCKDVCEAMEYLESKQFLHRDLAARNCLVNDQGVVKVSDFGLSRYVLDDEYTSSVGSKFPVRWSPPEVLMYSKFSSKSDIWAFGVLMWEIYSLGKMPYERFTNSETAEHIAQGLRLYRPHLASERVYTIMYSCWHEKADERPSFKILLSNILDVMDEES

In the test on Aiolos (compound concentration degrading 50% of Aiolos), `CN1CCN([C@@H]2CCCN(c3cnc(C(N)=O)c(Nc4ccc(C5CCN(CC6CCN(c7ccc(C(=O)N[C@H]8CCC(=O)NC8=O)nc7)CC6)CC5)cc4)n3)C2)C1=O` [Compound 1] showed a half-maximal degradation concentration (DC50) of 631 nM. Also, the Dmax with Aiolos (maximum percent Aiolos degradation in the assay) was 18.7%. Also, the mean clinical score result in test [1] (EAE, 30 mg/kg, compared with ibrutinib 30 mg/kg) is given as “superior to Ibrutinib; also recorded: lower mean clinical score than ibrutinib”. The EAE clinical scores result in test [1] (prophylactic daily oral treatment, Day −1 through Day 22, dose dependence) is recorded as “dose-dependent reduction of EAE clinical scores”. In addition, the “protein urine score, statistically significant reduction vs vehicle” value with MRL/lpr model (30 mg/kg, Urine Protein Score AUC) is recorded as “statistically significant reduction”. In the test with MRL/lpr model (30 mg/kg, vs vehicle), the “anti-ds DNA autoantibody in end of study serum” value is on record as “statistically significant reduction”. In the test on MRL/lpr model (setting [5]), the “overall summed histology score” value was “more effective than Ibrutinib” and the “size of the glomeruli” value is on record as “more effective than Ibrutinib”. The kidney disease result in the test with MRL/lpr model (MRL/lpr model) is on record as “significantly ameliorated kidney disease”. Besides, in the test on MRL/lpr model (daily oral, starting at 10 weeks of age, dose dependence), the urine protein score result is given as “dose-dependent reduction of urine protein score”. The “plasma cells number in bone marrow” value in the test on B cells compartment was “significantly reduce”. For the same compound, the B cells percentage result with B cells compartment (blood, spleens, peritoneum and bone marrow) is listed as “does not significantly affect”. In test [2] (10 mg/kg or 30 mg/kg once daily oral, started after arthritis was established, to Arthritis Day 14), the “disease (clinical arthritis score)” value was “strongly suppressed disease”. Besides, the “control of disease compared with comparators” value in test [2] (Compound 1 and ibrutinib 30 mg/kg, Enbrel 10 mg/kg i.p., tofacitinib 30 mg/kg twice daily, rilzabrutinib) is “more potently than anti-TNF-alpha blocking antibody (Enbrel) or BTK inhibitors rilzabrutinib and tofacitinib”. In addition, the “plasma cells in spleen, normalized to total B cells” value in the test with plasma cells (30 mg/kg, vs 30 mg/kg rilzabrutinib and ibrutinib) is on record as “significantly fewer plasma cells than mice treated with an equivalent dose of BTK inhibitors”. In the test with plasma cells (both doses (10 and 30 mg/kg), vs vehicle), the “plasma cells in spleen, normalized to total B cells” value is “significantly fewer plasma cells than vehicle-treated mice”. Further, the “plasma cell numbers in the bone marrow” value in the test on plasma cells (vs vehicle and vs equivalent doses of rilzabrutinib and ibrutinib) is reported as “significantly reduced plasma cell numbers”. For the same compound, the “BTK degradation in spleens” value at BTK [3] (NP-KLH immunized mice, oral once a day) is “robust BTK degradation”. On BTK [3] (spleen, 24 hours after the final dose, normalized to naive group), the “BTK levels (percent BTK remaining in B cells)” value is 13.4 % of baseline. In addition, at BTK [4], the “BTK level in B cells” value is “robust BTK degradation”.
